This passage reports IC50 results from US20240059703A1 (AMGEN INC., priority 2021, published 2024).

Structures are written as SMILES. pIC50: −log10 of the molar value.

One test concerns the target KRAS G12C (Homo sapiens (Human), UniProt P01116, C118A/G12C). Put plainly: 2 h coupled exchange assay. Conditions: Avg 2 h Coupled exchange IC50, 2 h compound pre-incubation. The test is classed as biochemical. As for the experimental part: The term “2 h coupled exchange assay” or “20 h coupled exchange assay” as used herein refers to the assay described in the Section entitled “BIOLOGICAL EVALUATION.”

The test system of test [1] is MIA PaCa-2 (human pancreatic carcinoma) cells. Put plainly: Cell Viability Assay (CellTiter-Glo), MIA PaCa-2. Type of test: cell-based. As for the experimental part: Serially-diluted compound or DMSO was added to the cells, and plates were incubated at 37° C., 5% CO2 for 72 h. Cell viability was measured using a CellTiter-Glo® Luminescent Cell Viability Assay kit (Promega) according to the manufacturer's protocol. The luminescence signal of treated samples was normalized to DMSO control, and data were analyzed using a 4-parameter logistic model to calculate IC50 values.
For orientation: In ATP-based viability assays light output follows the ATP content of the culture.

The test system of test [2] is A549 (human lung carcinoma) cells. In words: Cell Viability Assay (CellTiter-Glo), A549. Type of test: cell-based. The method in brief: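 Luminescent ATP read-out (CellTiter-Glo) after 72 h compound treatment of cells seeded overnight at 1.67E+04 cells/mL in RPMI 1640, 10% FBS; signal relative to DMSO, IC50 by 4-parameter logistic model.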
Where [3] appears, read: SOS-mediated nucleotide exchange.

Sequence of KRAS G12C (P01116 other isoform, or with tags, fused parts or gaps G12C/C118A): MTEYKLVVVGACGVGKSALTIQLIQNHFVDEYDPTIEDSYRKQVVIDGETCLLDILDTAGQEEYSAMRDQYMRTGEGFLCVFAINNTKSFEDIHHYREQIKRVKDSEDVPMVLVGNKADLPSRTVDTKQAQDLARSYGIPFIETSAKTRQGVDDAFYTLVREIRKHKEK

For orientation: pIC50 means the IC50 on a negative log10 scale, so that one unit is a factor of ten. A high value points to a low IC50. On to `C=CC(=O)N1CC2(CCN(c3nc4c(c(-c5c(C)ccc6cnn(C)c56)c3C#N)CCC(C)(C)C4)C2)C1` (single isomer, unassigned) [Example 13-150, 4-(1,6-dimethyl-1H-indazol-7-yl)-7,7-dimethyl-2-(2-(2-propenoyl)-2,6-diazaspiro[3.4]octan-6-yl)-5,6,7,8-tetrahydro-3-quinolinecarbonitrile], for which the results for the negative logarithm of the IC50 (pIC50) (against KRAS G12C (setting [3]); in test [1] (72 h); in test [2] (72 h)) were 5.54, 5.40 and 5.17, respectively.

As for `C=CC(=O)N1CC2(CCN(c3nc4c(c(-c5c(C)ccc6cnn(C)c56)c3C#N)C[C@H]3C[C@@H]4C3(C)C)C2)C1` [Example 13-104, (1R,9R)-6-(1,6-dimethyl-1H-indazol-7-yl)-10,10-dimethyl-4-(2-(2-propenoyl)-2,6-diazaspiro[3.4]octan-6-yl)-3-azatricyclo[7.1.1.0^2,7]undeca-2,4,6-triene-5-carbonitrile], the pIC50 against KRAS G12C (setting [3]) was 7.01; in test [1] (Homo sapiens, MIA PaCa-2, 72 h), 5.87; in test [2] (Homo sapiens, A549, 72 h), under 5.30.

As to `C=CC(=O)N1CC2(CCN(c3nc4c(c(-c5ccccc5F)c3C#N)CCN(C3CCCN(C)C3)C4)C2)C1` [Example 21-30, 4-(2-fluorophenyl)-7-((3R)-1-methyl-3-piperidinyl)-2-(2-(2-propenoyl)-2,6-diazaspiro[3.4]octan-6-yl)-5,6,7,8-tetrahydro-1,7-naphthyridine-3-carbonitrile 4-(2-fluorophenyl)-7-((3S)-1-methyl-3-piperidinyl)-2-(2-(2-propenoyl)-2,6-diazaspiro[3.4]octan-6-yl)-5,6,7,8-tetrahydro-1,7-naphthyridine-3-carbonitrile], the negative logarithm of the IC50 (pIC50) against KRAS G12C is 6.68; in test [1] (Homo sapiens, MIA PaCa-2, 72 h), 5.68; in test [2] (Homo sapiens, A549, 72 h), 4.81.

On to `C=CC(=O)N1CC2(CCN(c3nc4c(c(-c5c(C)ccc6cn[nH]c56)c3C#N)COC(C)(C)C4)C2)C1` [Example 14-80, 7,7-dimethyl-4-(6-methyl-1H-indazol-7-yl)-2-(2-(2-propenoyl)-2,6-diazaspiro[3.4]octan-6-yl)-7,8-dihydro-5H-pyrano[4,3-b]pyridine-3-carbonitrile], for which the pIC50 against KRAS G12C is 7.05; in test [1] (Homo sapiens, MIA PaCa-2, 72 h), 5.92; in test [2] (Homo sapiens, A549, 72 h), under 5.30.

For `C=CC(=O)N1CC2(CCN(c3nc4c(c(-c5c(C)ccc6[nH]ncc56)c3C#N)[C@H](C)O[C@H](C)C4)C2)C1` (racemic) [Example 13-13, (5R,7S)-5,7-dimethyl-4-(5-methyl-1H-indazol-4-yl)-2-(2-(2-propenoyl)-2,6-diazaspiro[3.4]octan-6-yl)-7,8-dihydro-5H-pyrano[4,3-b]pyridine-3-carbonitrile|(5S,7R)-5,7-dimethyl-4-(5-methyl-1H-indazol-4-yl)-2-(2-(2-propenoyl)-2,6-diazaspiro[3.4]octan-6-yl)-7,8-dihydro-5H-pyrano[4,3-b]pyridine-3-carbonitrile], the pIC50 on KRAS G12C (setting [3]) is 7.03; in test [1] (Homo sapiens, MIA PaCa-2, 72 h), 6.34; in test [2] (Homo sapiens, A549, 72 h) it was under 5.30.

`C=CC(=O)N1CC2(CCN(c3nc(-c4cccc5cccc(C)c45)c4c(n3)N(C)CCO4)C2)C1` [Example 1-28, 1-(6-(8-methyl-4-(8-methyl-1-naphthalenyl)-7,8-dihydro-6H-pyrimido[5,4-b][1,4]oxazin-2-yl)-2,6-diazaspiro[3.4]octan-2-yl)-2-propen-1-one]: the pIC50 at KRAS G12C (setting [3]) is 5.53; in test [1] (Homo sapiens, MIA PaCa-2, 72 h) it was 5.03; in test [2] (Homo sapiens, A549, 72 h) it was 4.94.

As to `C=CC(=O)N1CC2(CCN(c3nc4c(c(-c5ccccc5F)c3C#N)CCC(c3scnc3CO)=C4)C2)C1` [Example 23-56, 4-(2-fluorophenyl)-7-(4-(hydroxymethyl)-1,3-thiazol-5-yl)-2-(2-(2-propenoyl)-2,6-diazaspiro[3.4]octan-6-yl)-5,6-dihydro-3-quinolinecarbonitrile], the pIC50 at KRAS G12C was 6.89; in test [1] (Homo sapiens, MIA PaCa-2, 72 h) it was 6.31; in test [2] (Homo sapiens, A549, 72 h), under 5.30.

Turning to `C=CC(=O)N1CC2(CCN(c3nc4cc(-c5nccn5C)ccc4c(-c4ccccc4Cl)c3C#N)C2)C1` [Example 15-7, 4-(2-chlorophenyl)-7-(1-methyl-1H-imidazol-2-yl)-2-(2-(2-propenoyl)-2,6-diazaspiro[3.4]octan-6-yl)-3-quinolinecarbonitrile], the negative logarithm of the IC50 (pIC50) on KRAS G12C was 6.94; in test [1] (Homo sapiens, MIA PaCa-2, 72 h), 6.02; in test [2] (Homo sapiens, A549, 72 h) it was 5.38.

With `C=CC(=O)N1CC2(CCN(c3nc4c(c(-c5c(C)c(C)cc6cnn(C)c56)c3C)COC(C)(C)C4)C2)C1` [Example 14-40, 1-(6-(3,7,7-trimethyl-4-(1,5,6-trimethyl-1H-indazol-7-yl)-7,8-dihydro-5H-pyrano[4,3-b]pyridin-2-yl)-2,6-diazaspiro[3.4]octan-2-yl)-2-propen-1-one], the pIC50 against KRAS G12C is 6.96; in test [1] (Homo sapiens, MIA PaCa-2, 72 h), 6.30; in test [2] (Homo sapiens, A549, 72 h), under 5.30.

As to `C=CC(=O)N1CC2(CCN(c3nc4c(c(-c5c(C)c(Cl)cc6cnn(C)c56)c3F)CCN(C3COC3)C4)C2)C1` (atropisomer, axis not shown; (M)) [Example 14-107, (M)-1-(6-(4-(5-chloro-1,6-dimethyl-1H-indazol-7-yl)-3-fluoro-7-(3-oxetanyl)-5,6,7,8-tetrahydro-1,7-naphthyridin-2-yl)-2,6-diazaspiro[3.4]octan-2-yl)-2-propen-1-one], the negative-log IC50 (pIC50) at KRAS G12C was 7.89; in test [1] (Homo sapiens, MIA PaCa-2, 72 h) it was 7.52; in test [2] (Homo sapiens, A549, 72 h), 4.82.

As for `C=CC(=O)N1CC2(CCN(c3nc4c(c(-c5ccccc5Cl)c3C#N)CCN(c3scnc3C)C4)C2)C1` (single isomer, unassigned) [Example 21-22, (P)-4-(2-chlorophenyl)-7-(4-methyl-1,3-thiazol-5-yl)-2-(2-(2-propenoyl)-2,6-diazaspiro[3.4]octan-6-yl)-5,6,7,8-tetrahydro-1,7-naphthyridine-3-carbonitrile], the negative logarithm of the IC50 (pIC50) was 7.47 against KRAS G12C; 6.77 in test [1] (72 h); under 5.30 in test [2] (Homo sapiens, A549, 72 h).

With `C=CC(=O)N1CC2(CCN(c3nc4c(c(-c5cc(O)ccc5C)c3C#N)C[C@H]3C[C@@H]4C3(C)C)C2)C1` (single isomer, unassigned) [Example 2-69], the negative logarithm of the IC50 (pIC50) against KRAS G12C (setting [3]) is 7.82; in test [1] (Homo sapiens, MIA PaCa-2, 72 h) it was 6.66; in test [2] (Homo sapiens, A549, 72 h), under 5.30.

On to `C=CC(=O)N1CC2(CCN(c3nc4c(c(-c5c(C)ccc6[nH]ncc56)c3C#N)COC4(C)C)C2)C1` [Example 13-100, 2-(2-acryloyl-2,6-diazaspiro[3.4]octan-6-yl)-7,7-dimethyl-4-(5-methyl-1H-indazol-4-yl)-5,7-dihydrofuro[3,4-b]pyridine-3-carbonitrile], for which the pIC50 against KRAS G12C (setting [3]) is 6.91; in test [1] (Homo sapiens, MIA PaCa-2, 72 h) it was 6.02; in test [2] (Homo sapiens, A549, 72 h), under 5.30.

As for `C=CC(=O)N1CC2(CCN(c3nc4c(c(-c5cccc(C)c5Cl)c3C#N)COC(C)(C)C4)C2)C1` [Example 13-152, 4-(2-chloro-3-methylphenyl)-7,7-dimethyl-2-(2-(2-propenoyl)-2,6-diazaspiro[3.4]octan-6-yl)-7,8-dihydro-5H-pyrano[4,3-b]pyridine-3-carbonitrile], the pIC50 on KRAS G12C (setting [3]) was 6.10; in test [1] (Homo sapiens, MIA PaCa-2, 72 h), 5.71; in test [2] (Homo sapiens, A549, 72 h) it was 5.04.

`C=CC(=O)N1CC2(CCN(c3nc4c(c(-c5ccc(F)cc5)c3C#N)CCC(c3scnc3C)=C4)C2)C1` [Example 23-30, 4-(4-fluorophenyl)-7-(4-methyl-1,3-thiazol-5-yl)-2-(2-(2-propenoyl)-2,6-diazaspiro[3.4]octan-6-yl)-5,6-dihydro-3-quinolinecarbonitrile]: the pIC50 at KRAS G12C is 6.88; in test [1] (Homo sapiens, MIA PaCa-2, 72 h), 5.71; in test [2] (Homo sapiens, A549, 72 h) it was 5.08.
